Laboratory results as given in patent US20220323406A1, “METHODS AND COMPOSITIONS FOR DIFFERENTIATING STEM CELLS” (Massachusetts Institute of Technology, priority 2019, published 2022).

What was measured:
ENR+CD organoids = test: Primary screen: ATP (CellTiter-Glo 3D, CTG) cell number/viability, 2.5-D 384-well ENR+CD organoids;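 note: compounds given at plating and again on day 3 over a 6-day differentiation from ENR+CV stem-cell-enriched precursors, ATP measured on day 6, plate median as control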
[1] = test system: ENR+CD organoids (ISC to Paneth cell differentiation); test: Primary screen: CCh-stimulated lysozyme secretion LYZ.S, 2.5-D 384-well ENR+CD organoid differentiation; type: cell-based, mouse; conditions: primary screen
From the text: (§1) High-throughput screening.

[2] = test system: ENR+CD organoids (ISC to Paneth cell differentiation); test: Primary screen: basal (non-stimulated) lysozyme secretion LYZ.NS, 2.5-D 384-well ENR+CD organoid differentiation; type: cell-based, mouse
From the text: as §1

[3] = primary screen, standard z score, dose 0.08 uM
[4] = primary screen, standard z score, dose 0.40 uM
[5] = primary screen, standard z score, dose 2.00 uM
[6] = primary screen, standard z score, dose 10.00 uM
[7] = primary screen, dose 0.08 uM, FC relative to plate median
[8] = primary screen, dose 0.40 uM, FC relative to plate median
[9] = primary screen, dose 2.00 uM, FC relative to plate median
[10] = primary screen, dose 10.00 uM, FC relative to plate median
[11] = primary screen, dose 0.08 uM, standard z score
[12] = primary screen, dose 0.40 uM, standard z score
[13] = primary screen, dose 2.00 uM, standard z score
[14] = primary screen, dose 10.00 uM, standard z score
[15] = primary screen; dose 0.08 uM; FC vs plate median
[16] = primary screen; dose 0.40 uM; FC vs plate median
[17] = primary screen; dose 2.00 uM; FC vs plate median
[18] = primary screen; dose 10.00 uM; FC vs plate median

Molecule | Dose.FC.CTG (ENR+CD organoids; primary screen, dose 0.08 uM) [log2 fold change] | Dose.FC.CTG (ENR+CD organoids; primary screen, dose 0.40 uM) [log2 fold change] | Dose.FC.CTG (ENR+CD organoids; primary screen, dose 2.00 uM) [log2 fold change] | Dose.FC.CTG (ENR+CD organoids; primary screen, dose 10.00 uM) [log2 fold change] | Dose.FC.LYZ.S ([1]; dose 0.08 uM) [log2 fold change] | Dose.FC.LYZ.S ([1]; dose 0.40 uM) [log2 fold change] | Dose.FC.LYZ.S ([1]; dose 2.00 uM) [log2 fold change] | Dose.FC.LYZ.S ([1]; dose 10.00 uM) [log2 fold change] | Dose.FC.LYZ.NS ([2]; primary screen, dose 0.08 uM) [log2 fold change] | Dose.FC.LYZ.NS ([2]; primary screen, dose 0.40 uM) [log2 fold change] | Dose.FC.LYZ.NS ([2]; primary screen, dose 2.00 uM) [log2 fold change] | Dose.FC.LYZ.NS ([2]; primary screen, dose 10.00 uM) [log2 fold change] | Z.LYZ.NS [2, 3] | Z.LYZ.NS [2, 4] | Z.LYZ.NS [2, 5] | Z.LYZ.NS [2, 6] | other results
CCN(c1cc(-c2ccc(CN3CCOCC3)cc2)cc(C(=O)NCc2c(C)cc(C)[nH]c2=O)c1C)C1CCOCC1 [EPZ-6438] | 0.045 | 0.075 | −0.068 | 0.336 | 0.003 | −0.023 | −0.011 | 0.046 | 0.012 | −0.023 | 0.015 | 0.062 | 0.108 | −0.203 | 0.130 | 0.538 | –
COc1cc(N2CCN(C)CC2)ccc1Nc1nccc(-c2cn(C)c3cnccc23)n1 [AZ191] | 0.292 | 0.337 | 0.150 | −0.533 | 0.143 | 0.199 | 0.097 | −0.200 | 0.128 | 0.082 | 0.058 | −0.148 | – | – | – | – | Z.CTG (standard z score) (ENR+CD organoids; primary screen, dose 0.08 uM): 0.697; Z.CTG (standard z score) (ENR+CD organoids; primary screen, dose 0.40 uM): 0.804; Z.CTG (standard z score) (ENR+CD organoids; primary screen, dose 2.00 uM): 0.358; Z.CTG (standard z score) (ENR+CD organoids; primary screen, dose 10.00 uM): −1.272; Z.LYZ.NS (standard z score) ([2]; primary screen, dose 0.08 uM): 1.111; Z.LYZ.NS (standard z score) ([2]; primary screen, dose 0.40 uM): 0.717; Z.LYZ.NS (standard z score) ([2]; primary screen, dose 2.00 uM): 0.507; Z.LYZ.NS (standard z score) ([2]; primary screen, dose 10.00 uM): −1.289
CCCCCCCCCCCC1=C(O)C(=O)C=C(O)C1=O [Embelin] | −0.323 | −0.723 | −0.325 | −0.720 | −0.034 | −0.122 | −0.111 | −0.119 | −0.015 | −0.082 | −0.055 | −0.094 | −0.129 | −0.712 | −0.482 | −0.819 | –
Cc1cnc(NC(=O)Nc2cc(Br)c(C)cc2OC[C@@H]2CNCCO2)cn1 [LY2603618] | – | – | – | – | – | – | – | – | – | – | – | – | – | – | – | – | Dose.FC.CTG (log2 fold change) (ENR+CD organoids; primary screen, dose 0.08 uM): −0.004; Z.CTG (standard z score) (ENR+CD organoids; primary screen, dose 0.08 uM): −0.010; Dose.FC.CTG (log2 fold change) (ENR+CD organoids; primary screen, dose 0.40 uM): −0.238; Z.CTG (standard z score) (ENR+CD organoids; primary screen, dose 0.40 uM): −0.567; Dose.FC.CTG (log2 fold change) (ENR+CD organoids; primary screen, dose 2.00 uM): −0.396; Z.CTG (standard z score) (ENR+CD organoids; primary screen, dose 2.00 uM): −0.946; Dose.FC.CTG (log2 fold change) (ENR+CD organoids; primary screen, dose 10.00 uM): −0.983; Z.CTG (standard z score) (ENR+CD organoids; primary screen, dose 10.00 uM): −2.347; Dose.FC.LYZ.S (log2 fold change) ([1]; dose 0.08 uM): 0.009; Dose.FC.LYZ.S (log2 fold change) ([1]; dose 0.40 uM): −0.147; Dose.FC.LYZ.S (log2 fold change) ([1]; dose 2.00 uM): −0.269; Dose.FC.LYZ.S (log2 fold change) ([1]; dose 10.00 uM): −0.356; Dose.FC.LYZ.NS (log2 fold change) ([2]; primary screen, dose 0.08 uM): −0.005; Z.LYZ.NS (standard z score) ([2]; primary screen, dose 0.08 uM): −0.046; Dose.FC.LYZ.NS (log2 fold change) ([2]; primary screen, dose 0.40 uM): −0.091; Z.LYZ.NS (standard z score) ([2]; primary screen, dose 0.40 uM): −0.791; Dose.FC.LYZ.NS (log2 fold change) ([2]; primary screen, dose 2.00 uM): −0.193; Z.LYZ.NS (standard z score) ([2]; primary screen, dose 2.00 uM): −1.685; Dose.FC.LYZ.NS (log2 fold change) ([2]; primary screen, dose 10.00 uM): −0.233; Z.LYZ.NS (standard z score) ([2]; primary screen, dose 10.00 uM): −2.026
Cc1ccc(-c2cc(C(F)(F)F)nn2-c2ccc(S(N)(=O)=O)cc2)cc1 [Celecoxib] | −0.034 | −0.299 | −0.118 | −0.128 | −0.067 | −0.068 | −0.097 | −0.133 | −0.041 | −0.053 | −0.084 | −0.099 | −0.359 | −0.463 | −0.734 | −0.865 | –
CC1=C(C(=O)OC2CCCCC2)C(c2ccc([N+](=O)[O-])cc2)C2=C(CC(C)(C)CC2=O)N1 (stereo not drawn) [FLI-06] | 0.089 | 0.095 | 0.076 | −0.343 | 0.079 | 0.010 | −0.077 | −0.170 | 0.050 | −0.026 | −0.054 | −0.140 | 0.439 | −0.230 | −0.466 | −1.216 | Z.CTG (ENR+CD organoids; [3]): 0.213; Z.CTG (ENR+CD organoids; [4]): 0.226; Z.CTG (ENR+CD organoids; [5]): 0.182; Z.CTG (ENR+CD organoids; [6]): −0.819
CN1CC(=O)N2[C@H](c3ccc4c(c3)OCO4)c3[nH]c4ccccc4c3C[C@@H]2C1=O [Tadalafil] | – | – | – | – | – | – | – | – | – | – | – | – | – | – | – | – | Dose.FC.CTG (ENR+CD organoids; [7]): −0.019 log2 fold change; Dose.FC.CTG (ENR+CD organoids; [8]): 0.361 log2 fold change; Dose.FC.CTG (ENR+CD organoids; [9]): 0.436 log2 fold change; Dose.FC.CTG (ENR+CD organoids; [10]): 0.270 log2 fold change; Dose.FC.LYZ.S ([1]; dose 0.08 uM, FC relative to plate median): 0.091 log2 fold change; Dose.FC.LYZ.S ([1]; dose 0.40 uM, FC relative to plate median): 0.095 log2 fold change; Dose.FC.LYZ.S ([1]; dose 2.00 uM, FC relative to plate median): 0.223 log2 fold change; Dose.FC.LYZ.S ([1]; dose 10.00 uM, FC relative to plate median): 0.148 log2 fold change; Dose.FC.LYZ.NS [2, 7]: 0.102 log2 fold change; Z.LYZ.NS [2, 11]: 0.887; Dose.FC.LYZ.NS [2, 8]: 0.027 log2 fold change; Z.LYZ.NS [2, 12]: 0.233; Dose.FC.LYZ.NS [2, 9]: 0.130 log2 fold change; Z.LYZ.NS [2, 13]: 1.128; Dose.FC.LYZ.NS [2, 10]: 0.061 log2 fold change; Z.LYZ.NS [2, 14]: 0.534
OG-L002 | – | – | – | – | – | – | – | – | – | – | – | – | – | – | – | – | Z.CTG (ENR+CD organoids; [11]): 0.225; Z.CTG (ENR+CD organoids; [12]): 0.329; Z.CTG (ENR+CD organoids; [13]): 0.306; Z.CTG (ENR+CD organoids; [14]): 0.225; Dose.FC.CTG (ENR+CD organoids; [15]): 0.094 log2 fold change; Dose.FC.CTG (ENR+CD organoids; [16]): 0.138 log2 fold change; Dose.FC.CTG (ENR+CD organoids; [17]): 0.128 log2 fold change; Dose.FC.CTG (ENR+CD organoids; [18]): 0.094 log2 fold change; Dose.FC.LYZ.S ([1]; dose 0.08 uM, FC vs plate median): 0.023 log2 fold change; Dose.FC.LYZ.S ([1]; dose 0.40 uM, FC vs plate median): 0.026 log2 fold change; Dose.FC.LYZ.S ([1]; dose 2.00 uM, FC vs plate median): −0.001 log2 fold change; Dose.FC.LYZ.S ([1]; dose 10.00 uM, FC vs plate median): −0.084 log2 fold change; Z.LYZ.NS [2, 11]: −0.001; Z.LYZ.NS [2, 12]: −0.097; Z.LYZ.NS [2, 13]: 0.182; Z.LYZ.NS [2, 14]: −0.790; Dose.FC.LYZ.NS [2, 15]: 0.000 log2 fold change; Dose.FC.LYZ.NS [2, 16]: −0.011 log2 fold change; Dose.FC.LYZ.NS [2, 17]: 0.021 log2 fold change; Dose.FC.LYZ.NS [2, 18]: −0.091 log2 fold change
